Reference: patent US20140163067A1, “Methods of Treatment of Limited Cognitive Impairment” (ENVIVO PHARMACEUTICALS, INC., priority 2011, published 2014)

Tested on: subjects suffering from LCI
Assay: Sensory electrophysiological responses (P50 gating, MMN, P300, N100) in LCI subjects
Format: in vivo, human
Settings: compared with placebo, effects expected at a daily dose as low as 0.3 mg, dosed daily for 20 days
Experimental: These effects are expected at a daily dose as low as 0.3 mg of (R)-7-chloro-N-(quinuclidin-3-yl)benzo[b]thiophene-2-carboxamide hydrochloride.
Impairment of the ability of central nervous system to inhibit irrelevant sensory information has long been used as a model for understanding the deficits of attention seen in subjects. Two approaches to the measurement of this ability have commonly been employed (see (Heinrichs, 2004; Potter et al., 2006; Turetsky et al., 2007; Umbricht and Krljes, 2005) for reviews and meta-analyses): (1) the sensory gating paradigm in which the presentation of one stimulus normally suppresses the response elicited by a stimulus which rapidly follows it; and (2) the oddball or orienting paradigm in which a rare or unexpected event elicits a diminished response in subjects because attentional resources are inappropriately focused on less salient aspects of the environment.
Two responses are commonly used assess brain activity: (1) the auditory P50 response elicited by the second member of a pair of clicks; and (2) the mismatch negativity (MMN) or N2 response evoked by a rarely occurring pure tone of no instructed relevance to the subject. Abnormalities in both P50 gating and the MMN have been reported in schizophrenic subjects. […]

**Q.** Which “sensory electrophysiological responses which correlate with improved cognitive and functional performance” value does the source give for `Cl.O=C(N[C@H]1CN2CCC1CC2)c1cc2cccc(Cl)c2s1` [(R)-7-chloro-N-(quinuclidin-3-yl)benzo[b]thiophene-2-carboxamide hydrochloride] here?
**A.** The value was “can improve sensory electrophysiological responses”.
